# Assay results: US8829014B2, “Thiazole and thiophene analogues, and their use in treating autoimmune diseases and cancers” (Board of Supervisors of Louisiana State University and …, priority 2006, dated 2014)
# Entries after “also recorded” stand apart in the source; their conditions may differ. Where two headings read alike, the source gives them in different places.
# Legend:
# [1] = tested on: AP-1; experiment: AP-1 inhibitor screen: basal AP-1-dependent luciferase expression in HEK/AP-1 cell line; format: cell-based
# Procedure, shortened: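 Compound effects on unstimulated reporter signal were tested: 1.0 μM compound (0.3% DMSO) for 48 hr on HEK cells bearing an AP-1 (TGACTAA ×3)-luciferase construct, seeded 24 hr earlier. Triplicate luminescence means were normalized to DMSO-only wells; dose-response experiments were repeated 2–4 times.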
# [2] = tested on: eIF4E; experiment: eIF4E inhibitor screen: luciferase under FGF 5′UTR in FaDu cells (highly cap-dependent translation); format: cell-based; details: for luciferase expression under the control of the FGF 5′UTR: 1.0 μM, 48 h, FaDu UTR cells, normalized to DMSO (FIG. 8)
# Description: Since highly cap-dependent translation is associated with synthesis of proteins involved in cancer, a compound that inhibits this pathway may be used as an anti-cancer agent. The assay was developed by cloning the highly structured 5′ UTR of FGF, which requires high levels of eIF4E before protein synthesis can initiate, into the proper orientation of the reporter gene luciferase, and then stably transfecting the modified luciferase gene into the cell line FaDu that is known to have high levels of eIF4E. The activity of luciferase is then monitored in the presence and absence of the tested compound.
# Generation of Stable Cell Lines: The pMS110 plasmid (pGL3-control plasmid from Promega which contains a neo selectable marker) was used to generate pMS110-5′UTR by cloning the 5′ UTR of FGF just upstream of the luciferase AUG start codon. FaDu cells, a head and neck cancer cell line, were transfected using Lipofectamine2000 (Invitrogen). Twenty-four hours after transfection G418 was added at 500 μg/ml. Cells were maintained in G418 for 14 days, and then individual colonies were transferred to a 96-well plate for propagation. Individual clones were analyzed for luciferase expression by plating 10^4 cells per well in a 96-well plate for 24 hours before lysing the cells and analyzing for luciferase activity in a Victor III (Perkin Elmer) or Lucy2 (Rosys Anthos). FaDu9000 and FaDuUTR were the clones that expressed the highest level of active luciferase following transfection of pMS110 and pMS110-5′UTR, respectively.
# Analysis of Rapamycin Responsiveness: Cells of FaDu9000 and FaDuUTR were plated at 1×10^4 cells/well in a 96-well dish. Twenty-four hours after plating, 0.1% DMSO (vehicle control) or 10 nM rapamycin were added to each well, and the cells were maintained for an additional 24 or 48 hours. The cells were then lysed and luciferase activity was determined using BriteGlo (Promega) as per manufacturer's instruction and recorded using the Victor III. Following subtraction of background activity, the mean value of quadruplicate samples for a given experiment was determined, and the treated cells were normalized to the control. At least four separate experiments were conducted, and the mean and standard error were calculated. To determine if rapamycin affected cell viability, an MTS assay (Cell Proliferation One Solution, Promega) was carried out on each population at 48 hours in two separate experiments.
# The FaDu cell line stably transfected with FGF 5′UTR was used to screen thirty-nine representative compounds, each at a concentration of 1.0 μM. Additional cells were treated with vehicle, 0.3% DMSO. Cells were plated for twenty-four hours in a 96-well plate. Each compound was then added to triplicate wells, and the cells were incubated for forty-eight hours before measuring luciferase activity as above. The mean luciferase activity was measured using Promega's Brite-Glo kit, and the mean for each sample was normalized to DMSO. The experiment was then repeated, and the average and standard deviation of the two experiments were determined (FIG. 8).
# [3] = tested on: NF-κB; experiment: NF-κB inhibitor screen: basal NF-κB-dependent luciferase expression in HEK/NF-κB cell line; format: cell-based
# Procedure, shortened: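 Basal NF-κB-driven luciferase (six-copy element, stable HEK293 line) was read with Brite-Glo. Compound was added in 0.3% DMSO 24 h post-plating, initially at 1.0 μM and then across 10–3300 nM in six steps, in triplicate wells. Signals were expressed relative to DMSO or to the lowest concentration tested.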
# [4] = tested on: cell lines from the prostate, one tumorigenic and one non-tumorigenic; experiment: MTT viability in prostate cell line pair, tumorigenic and non-tumorigenic; format: cell-based; details: 10 μM, 48 h, tumorigenic vs non-tumorigenic line
# Experimental: Additional compounds have also been tested for their ability to inhibit both TNF-α-induced NF-κB—expression and PMA-induced AP-1 expression. In both tests, the compound was added for 1 h, then the appropriate inducer was added, and luciferase activity was monitored 24 h later. Values were then normalized to the vehicle control, DMSO. Following the initial luciferase screens, studies were conducted to assess the cytotoxicity of the compounds in normal cells such as VSMC, HUVEC, or HPT cells. Human umbilical vein endothelial cells (HUVEC) represent the normal endothelium, vascular smooth muscle cells (VSMC) were represented by cells from the adult rat aorta, and human proximal tubule (HPT) cells represent the normal proximal tubule in vivo. These cells were grown to near confluency in multi-well plates, and were then treated for 48 h with either vehicle (0.1% DMSO) or 10 μM of each drug candidate. Following treatment, the media from the VSMC and HUVEC incubations were removed, and the amount of lactate dehydrogenase (LDH) released into the medium was determined with a commercial kit. LDH is normally confined to the cytosol, and its release represents “leakiness” of the plasma membrane. LDH activity was expressed as % increase over vehicle-treated cells. […] The number of both live and dead cells was counted using an automated cell viability analyzer. The % decrease in numbers of viable cells was determined. Toxicity in the treated HPT cells was determined by the ethidium homodimer (EthHD) uptake assay. […] Results were expressed as a % increase in cell death over vehicle-treated cells. […] Following treatment, the viability of the cells was determined by the MTT assay. In this assay, the MTT dye is converted only in viable cells by intracellular enzymes to a colorimetric product that is quantitated by a microplate reader.
# For the results in Table 13, cells were grown to near confluency in multi-well plates, then treated for 48 h with either vehicle (0.1% DMSO) or 10 μM of each drug candidate. Following treatment, the media from the VSMC and HUVEC incubations were removed, and the amount of lactate dehydrogenase (LDH) released into the medium was determined with a commercial kit and expressed as a % increase over vehicle-treated cells. HPT toxicity was determined by the ethidium homodimer (EthHD) uptake assay. Inside the cell, EthHD produces a strong fluorescent signal, which is proportional to the amount of cell death, expressed as a % increase in cell death over vehicle-treated cells. […] The cells were treated for 48 h with vehicle (0.1% DMSO) or 10 μM of each drug candidate, and the viability of the cells was determined by the MTT assay, expressed as a % decrease in viability compared to vehicle-treated cells. […]
# [5] = tested on: cell lines from the skin, one tumorigenic and one non-tumorigenic; experiment: MTT viability in skin cell line pair, tumorigenic and non-tumorigenic; format: cell-based; details: 10 μM, 48 h, MTT; tumorigenic vs non-tumorigenic line
# Experimental: Additional compounds have also been tested for their ability to inhibit both TNF-α-induced NF-κB—expression and PMA-induced AP-1 expression. In both tests, the compound was added for 1 h, then the appropriate inducer was added, and luciferase activity was monitored 24 h later. Values were then normalized to the vehicle control, DMSO. Following the initial luciferase screens, studies were conducted to assess the cytotoxicity of the compounds in normal cells such as VSMC, HUVEC, or HPT cells. Human umbilical vein endothelial cells (HUVEC) represent the normal endothelium, vascular smooth muscle cells (VSMC) were represented by cells from the adult rat aorta, and human proximal tubule (HPT) cells represent the normal proximal tubule in vivo. These cells were grown to near confluency in multi-well plates, and were then treated for 48 h with either vehicle (0.1% DMSO) or 10 μM of each drug candidate. Following treatment, the media from the VSMC and HUVEC incubations were removed, and the amount of lactate dehydrogenase (LDH) released into the medium was determined with a commercial kit. LDH is normally confined to the cytosol, and its release represents “leakiness” of the plasma membrane. LDH activity was expressed as % increase over vehicle-treated cells. In another assay of viability, the treated VSMC and HUVEC were removed by trypsinization and treated with trypan blue, a dye that is taken up only by dead cells. The number of both live and dead cells was counted using an automated cell viability analyzer. The % decrease in numbers of viable cells was determined. Toxicity in the treated HPT cells was determined by the ethidium homodimer (EthHD) uptake assay. EthHD is a fluorescent dye that is excluded from live cells, but is taken up by cells that have lost permeability barriers. Inside the cell, EthHD produces a strong fluorescent signal, which is proportional to the number of dead cells. Results were expressed as a % increase in cell death over vehicle-treated cells. The lead compounds were also tested in two pairs of cell lines from either the skin or prostate, one tumorigenic and one non-tumorigenic, to test for any differences in toxicity or heightened sensitivity in the tumorigenic lines. The cells were treated for 48 h with vehicle (0.1% DMSO) or 10 μM of each drug candidate. Following treatment, the viability of the cells was determined by the MTT assay. In this assay, the MTT dye is converted only in viable cells by intracellular enzymes to a colorimetric product that is quantitated by a microplate reader.
# For the results in Table 13, cells were grown to near confluency in multi-well plates, then treated for 48 h with either vehicle (0.1% DMSO) or 10 μM of each drug candidate. Following treatment, the media from the VSMC and HUVEC incubations were removed, and the amount of lactate dehydrogenase (LDH) released into the medium was determined with a commercial kit and expressed as a % increase over vehicle-treated cells. HPT toxicity was determined by the ethidium homodimer (EthHD) uptake assay. Inside the cell, EthHD produces a strong fluorescent signal, which is proportional to the amount of cell death, expressed as a % increase in cell death over vehicle-treated cells. The lead compounds were also tested in two pairs of cell lines from the skin or prostate, one tumorigenic and one non-tumorigenic, to test for differing toxicity or heightened sensitivity in the tumorigenic lines. The cells were treated for 48 h with vehicle (0.1% DMSO) or 10 μM of each drug candidate, and the viability of the cells was determined by the MTT assay, expressed as a % decrease in viability compared to vehicle-treated cells. The in vivo inflammation model measured the % inhibition of rat paw edema induced by carageenan injection.
# [6] = tested on: carageenan-induced edema; experiment: Carrageenan-induced rat paw edema test (anti-inflammatory activity); format: in vivo, Sprague-Dawley rats; details: for In vivo inflammation % inhibition: rat paw edema induced by carageenan injection; for inhibition in vivo at 50 mg/kg: po, 3 h
# Procedure, shortened: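 Edema was raised by sub-plantar injection of 1% carrageenan into the right hind paw, 1 h after dosing 18 h-fasted male/female Sprague-Dawley rats (150-250 g) with 50 mg/kg p.o. in 0.1% CMC. Swelling was measured by displacement 3 h later and expressed as % protection against saline control.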
# [7] = tested on: AP-1; experiment: PMA-induced AP-1 luciferase expression in HEK cells; format: cell-based; details: for AP-1 % inhibition: four lead compounds, Table 13; for IC50: 6 point dose-response curves, read-out: IC50 concentrations AP-1
# [8] = tested on: NF-κB; experiment: TNF-α-induced NF-κB-dependent luciferase expression in HEK cells; format: cell-based; parameters: NF-κB % inhibition: concentration or dose not given beside the values; details: for NF-κB % inhibition: four lead compounds, Table 13
Compound,luciferase expression under the control of the FGF 5′UTR [2],Differential Toxicity* Prostate [4],Differential Toxicity* Skin [5],In vivo inflammation % inhibition [6],AP-1 % inhibition [7],further results
2-(4-Methyl-2-methylamino-thiazol-5-yl)-3-(4-chloro-phenyl)-3H-quinazolin-4-one [Example 244],inhibited luciferase expression,–,–,–,–,"basal AP-1-dependent luciferase, six-point dose response ([1]; 10 nM-3300 nM (FIG. 14)): substantial activity at submicromolar concentrations; inhibition of highly cap-dependent translation (summary statement) ([2]; summary in the disclosure): capable of inhibiting; basal NF-κB-dependent luciferase, six-point dose response ([3]; 10 nM-3300 nM (FIG. 12), listed as Compound 4): substantial activity at submicromolar concentrations; also recorded: robust inhibition; inhibition of basal NF-κB-dependent luciferase expression ([3]; 3.3 μM (FIG. 12)): about 50%; inhibition of NF-κB (summary statement) ([3]; summary in the disclosure): capable of inhibiting"
Cc1ccccc1-n1c(-c2sc(Nc3ccccc3)nc2C)nc2ccccc2c1=O [PMCR 20],–,Cancer,Neither,42%,73%,NF-κB % inhibition [8]: 21%
"CCOC(=O)Nc1nc(-c2ccccc2)c(-c2nc3ccccc3c(=O)n2-c2ccccc2)s1 [Example 159, [5-(4-Oxo-3-phenyl-3,4-dihydro-quinazolin-2-yl)-4-phenyl-thiazol-2-yl]-carbamic acid ethyl ester]",increased luciferase expression,–,–,–,–,"inhibition at 1 µM ([1]; AP1, 1 uM, determined as described in Example 398): 7%; inhibition in vivo at 50 mg/kg ([6]; carrageenan-induced rat paw edema, defined in Example 397, read-out: % Protection): 75%; inhibition at 1 µM ([3]; 1 uM, determined as described in Example 398, read-out: NFkB inhibition @ 1 uM): 80%"
"O=C(c1sc(Nc2ccccc2)nc1-c1ccccc1)c1sc(Nc2ccccc2)nc1-c1ccccc1 [Example 126, Bis-(2-phenylamino-4-phenyl-thiazole-5-yl)-methanone]",increased luciferase expression,–,–,–,–,"inhibition in vivo at 50 mg/kg ([6]; Rattus norvegicus, rat paw edema, 50 mg/kg, reading 3 hours after carrageenan, [(Control−Test)/Control]×100%, read-out: % Protection P): 64.5%; inhibition at 1 µM ([7]; AP1, 1 uM, luciferase in HEK/AP-1 cells, as described in Example 398): 27.1%; inhibition at 1 µM ([8]; Homo sapiens, HEK293, 1 uM, luciferase in HEK/NF-κB cells, as described in Example 398, read-out: NFkB inhibition @ 1 uM): 22.2%"
"COc1ccc(C(=O)c2sc(Nc3ccccc3)nc2N)cc1 [Example 115, (4-Amino-2-phenylamino-thiazole-5-yl)-4-(methoxy-phenyl)-methanone]",increased luciferase expression,–,–,–,–,"% Protection P ([6]; rat paw edema, 50 mg/kg, reading 3 hours after carrageenan, [(Control−Test)/Control]×100%, 50 mg/kg): 90.92%; basal NF-κB-dependent luciferase expression ([3]; 1.0 μM screen of 39 compounds (FIG. 11)): potentiated expression in one of the two experiments"
CC(=O)c1ccc(-n2c(-c3cc(-c4ccncc4)c(N4CCOCC4)s3)nc3ccccc3c2=O)cc1 [PMCR 242],–,Cancer,Neither,80%,84%,inflammation in the in vivo assay ([6]; rat paw edema): strongly inhibited inflammation; IC50 [7]: 5000 nM; NF-κB % inhibition [8]: 66%
Bis-(2-phenylamino-4-benzayl-thiazole-5-yl)-methanone [Example 133],inhibited luciferase expression,–,–,–,–,"% Protection P ([6]; rat paw edema, 50 mg/kg, reading 3 hours after carrageenan, [(Control−Test)/Control]×100%): 19.09%; AP-1 inhibition @ 1 uM ([7]; 1 uM, luciferase in HEK/AP-1 cells, as described in Example 398): 24.53; NFkB inhibition @ 1 uM ([8]; 1 uM, luciferase in HEK/NF-κB cells, as described in Example 398): 17.74"
N-{4-{5-[4-(4-acetylamino-phenyl)-5-morpholin-4-yl-thiophene-2-carbonyl]-2-morpholin-4-yl-thiophene-3-yl}-phenyl)-acetamide [Example 113],increased luciferase expression,–,–,–,–,–
CNc1nc(-c2ccccc2)c(-c2nc3ccccc3c(=O)n2-c2ccccc2OC)s1 [PMCR 75],–,Normal,Both,56%,90%,"IC50 [7]: 200 nM; IC50 ([8]; 6 point dose-response curves, read-out: IC50 concentrations NF-κB): 500 nM"
Cc1nc(Nc2ccc(Cl)cc2)sc1-c1nc2ccccc2c(=O)n1-c1ccccc1Cl [PMCR 120],–,Both,Cancer,58%,27%,–
